The target of experiment [1] is Human recombinant Acetyl-CoA Carboxylase 2 (ACC2) (Homo sapiens, UniProt O00763). The experiment can be described thus: Assay Y: ACC2 inhibition, inorganic phosphate (Malachite Green). In kind it is biochemical. To be noted: Assay Y: room temperature, 3 hr, 15 min preincubation. The method in brief: (§1)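 Enzyme preincubated with compound 15 min before substrate addition; reaction run 3 h, then phosphate detected with Malachite Green at 670 nm after 10 min at room temperature. Triplicate 10-point titrations; IC50 by non-linear four-parameter curve fitting.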

Experiment [2] deals with Human recombinant Acetyl-CoA Carboxylase 1 (ACC1) (Homo sapiens, UniProt Q13085). The experiment can be described thus: Assay Y: ACC1 inhibition, inorganic phosphate (Malachite Green). The class given is biochemical. Conditions: Assay Y: room temperature, 3 hr, 15 min preincubation. The gist of the method:
as §1

The values below come from patent US20090306133A1, “New Acetyl Coenzyme A Carboxylase (ACC) Inhibitors And Uses In Treatments Of Obesity And Diabetes Mellitus - 087” (ASTRAZENECA AB, priority 2007, published 2009).

pIC50: −log10 of the molar value.

Chain of Human recombinant Acetyl-CoA Carboxylase 2 (ACC2) (O00763 whole entry): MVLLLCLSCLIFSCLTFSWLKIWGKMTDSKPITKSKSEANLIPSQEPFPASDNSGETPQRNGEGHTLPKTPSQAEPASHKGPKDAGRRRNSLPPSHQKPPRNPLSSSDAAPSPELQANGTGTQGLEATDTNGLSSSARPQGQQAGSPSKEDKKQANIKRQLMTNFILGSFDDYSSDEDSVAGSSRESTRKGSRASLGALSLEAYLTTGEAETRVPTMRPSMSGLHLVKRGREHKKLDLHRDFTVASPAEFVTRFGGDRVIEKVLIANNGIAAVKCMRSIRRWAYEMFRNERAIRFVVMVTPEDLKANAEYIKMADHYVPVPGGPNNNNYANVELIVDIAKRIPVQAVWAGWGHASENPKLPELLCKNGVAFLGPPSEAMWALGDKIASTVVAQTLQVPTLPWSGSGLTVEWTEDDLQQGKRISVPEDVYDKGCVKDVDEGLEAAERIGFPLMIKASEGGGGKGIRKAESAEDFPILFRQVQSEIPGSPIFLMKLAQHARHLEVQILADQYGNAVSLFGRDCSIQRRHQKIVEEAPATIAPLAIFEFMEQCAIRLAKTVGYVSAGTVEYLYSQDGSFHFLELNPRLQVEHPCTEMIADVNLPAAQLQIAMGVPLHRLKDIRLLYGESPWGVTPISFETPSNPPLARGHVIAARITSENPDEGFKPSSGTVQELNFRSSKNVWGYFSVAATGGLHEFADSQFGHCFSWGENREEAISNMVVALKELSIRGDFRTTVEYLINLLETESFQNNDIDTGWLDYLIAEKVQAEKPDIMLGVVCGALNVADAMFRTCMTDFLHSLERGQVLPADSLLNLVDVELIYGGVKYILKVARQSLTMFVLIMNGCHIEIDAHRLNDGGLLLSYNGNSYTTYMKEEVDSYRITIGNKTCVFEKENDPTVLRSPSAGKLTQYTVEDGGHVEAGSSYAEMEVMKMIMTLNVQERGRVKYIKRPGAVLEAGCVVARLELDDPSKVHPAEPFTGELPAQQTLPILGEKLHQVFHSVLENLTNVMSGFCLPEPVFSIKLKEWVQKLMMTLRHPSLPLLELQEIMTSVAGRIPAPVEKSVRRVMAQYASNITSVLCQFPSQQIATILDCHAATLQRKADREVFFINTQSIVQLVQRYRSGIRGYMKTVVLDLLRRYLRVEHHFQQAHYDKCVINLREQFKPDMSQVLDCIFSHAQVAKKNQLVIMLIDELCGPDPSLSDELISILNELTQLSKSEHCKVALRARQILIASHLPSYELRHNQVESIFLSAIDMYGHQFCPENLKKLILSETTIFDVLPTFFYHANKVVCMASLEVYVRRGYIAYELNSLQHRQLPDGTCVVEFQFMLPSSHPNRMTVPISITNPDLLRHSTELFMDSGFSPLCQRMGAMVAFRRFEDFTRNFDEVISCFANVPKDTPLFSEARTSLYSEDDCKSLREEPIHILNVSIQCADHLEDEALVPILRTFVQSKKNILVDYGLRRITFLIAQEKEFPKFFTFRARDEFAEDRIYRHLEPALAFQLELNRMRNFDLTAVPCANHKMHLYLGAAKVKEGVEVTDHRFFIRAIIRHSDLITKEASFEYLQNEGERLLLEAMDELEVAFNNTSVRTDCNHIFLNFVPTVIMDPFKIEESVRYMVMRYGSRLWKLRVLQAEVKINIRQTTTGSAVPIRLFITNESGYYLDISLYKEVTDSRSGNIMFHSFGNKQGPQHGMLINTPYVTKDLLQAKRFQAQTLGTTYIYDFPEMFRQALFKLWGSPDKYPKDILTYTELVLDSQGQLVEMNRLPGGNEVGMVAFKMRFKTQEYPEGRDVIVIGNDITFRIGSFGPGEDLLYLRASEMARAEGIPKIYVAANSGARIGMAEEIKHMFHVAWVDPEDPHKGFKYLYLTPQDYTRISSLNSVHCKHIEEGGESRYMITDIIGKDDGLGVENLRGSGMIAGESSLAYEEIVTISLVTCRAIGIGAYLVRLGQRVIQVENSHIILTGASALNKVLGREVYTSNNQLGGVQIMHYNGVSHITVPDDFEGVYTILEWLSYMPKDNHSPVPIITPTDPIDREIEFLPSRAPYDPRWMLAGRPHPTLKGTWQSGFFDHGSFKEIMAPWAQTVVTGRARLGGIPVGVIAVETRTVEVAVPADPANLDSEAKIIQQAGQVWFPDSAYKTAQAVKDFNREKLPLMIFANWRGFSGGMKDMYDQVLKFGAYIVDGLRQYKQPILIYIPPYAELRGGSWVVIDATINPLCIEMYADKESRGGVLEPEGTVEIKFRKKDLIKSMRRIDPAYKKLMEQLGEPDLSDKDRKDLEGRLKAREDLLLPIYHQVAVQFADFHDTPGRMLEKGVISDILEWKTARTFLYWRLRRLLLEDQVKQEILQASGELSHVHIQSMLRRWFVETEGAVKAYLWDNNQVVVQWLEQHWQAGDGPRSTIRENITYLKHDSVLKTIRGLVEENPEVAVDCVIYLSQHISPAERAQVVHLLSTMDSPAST

For `CC(C)(C)OC(=O)NC[C@H]1CC[C@H](CNS(=O)(=O)c2ccsc2)CC1` [Example 74, tert-Butyl [(trans-4-{[(3-thienylsulfonyl)amino]methyl}cyclohexyl)methyl]-carbamate], the pIC50 (usually the negative decadic logarithm of the IC50, by convention in mol/L) in experiment [1] is 5.02; in experiment [2], less than 4.70.

Take `Cc1nc(-c2cccc(S(=O)(=O)NC[C@H]3CC[C@H](CNC(=O)OC(C)(C)C)CC3)c2)no1` [Example 75, tert-Butyl ({trans-4-[({[3-(5-methyl-1,2,4-oxadiazol-3-yl)phenyl]sulfonyl}amino)-methyl]cyclohexyl}methyl)carbamate]: the pIC50 in experiment [1] is 5.37; in experiment [2], less than 4.70.

Take `CC(C)(C)OC(=O)NC[C@H]1CC[C@H](CNS(=O)(=O)c2cccc3cnccc23)CC1` [Example 76, tert-Butyl [(trans-4-{[(isoquinolin-5-ylsulfonyl)amino]methyl}cyclohexyl)-methyl]carbamate]: the negative-log IC50 (pIC50) in experiment [1] was 5.44; in experiment [2], less than 4.70.

In the case of `CC(=O)Nc1nc(C)sc1S(=O)(=O)NC[C@H]1CC[C@H](CNC(=O)OC(C)(C)C)CC1` [Example 77, tert-Butyl {[trans-4-({[(4-acetamido-2-methyl-1,3-thiazol-5-yl)sulfonyl]amino}methyl)-cyclohexyl]methyl}carbamate], the pIC50 in experiment [1] was 5.44; in experiment [2], 5.03.

Regarding `CC(C)(C)OC(=O)NC[C@H]1CC[C@H](CNS(=O)(=O)c2ccc3ncsc3c2)CC1` [Example 78, tert-Butyl [(trans-4-{[(1,3-benzothiazol-6-ylsulfonyl)amino]methyl}cyclohexyl)-methyl]carbamate], the figures for the pIC50 in experiment [1] and in experiment [2] were 5.50 and 5.18, respectively.

With `CCN(C[C@H]1CC[C@H](CNC(=O)OC(C)(C)C)CC1)S(=O)(=O)c1ccc2ccccc2c1` [Example 79, tert-Butyl [(trans-4-{[ethyl(2-naphthylsulfonyl)amino]methyl}cyclohexyl)methyl]-carbamate], the figures for the pIC50 in experiment [1] and in experiment [2] were 5.27 and less than 4.70, respectively.

For `CC(C)(C)OC(=O)NC[C@H]1CC[C@H](CN(CCc2ccccc2)S(=O)(=O)c2ccc3ccccc3c2)CC1` [Example 80, tert-Butyl [(trans-4-{[(2-naphthylsulfonyl)(2-phenylethyl)amino]methyl}cyclohexyl)-methyl]carbamate], the pIC50 in experiment [1] was 5.52; in experiment [2], less than 4.70.

For the molecule `CCOC(=O)CN(C[C@H]1CC[C@H](CNC(=O)OC(C)(C)C)CC1)S(=O)(=O)c1ccc2ccccc2c1` [Example 81, Ethyl N-[(trans-4-{[(tert-butoxycarbonyl)amino]methyl}cyclohexyl)methyl]-N-(2-naphthylsulfonyl)glycinate], the pIC50 in experiment [1] is 5.52; in experiment [2], less than 4.70.

For `CC(C)(C)OC(=O)NC[C@H]1CC[C@H](CN(CC2CCOCC2)S(=O)(=O)c2ccc3ccccc3c2)CC1` [Example 82, tert-Butyl [(trans-4-{[(2-naphthylsulfonyl)(tetrahydro-2H-pyran-4-ylmethyl)amino]-methyl}cyclohexyl)methyl]carbamate], the values for the pIC50 in experiment [1] and in experiment [2] were 5.50 and less than 4.70, respectively.

In the case of `CC(C)(C)OC(=O)NC[C@H]1CC[C@H](CN(CC#N)S(=O)(=O)c2ccc3ccccc3c2)CC1` [Example 83, tert-Butyl [(trans-4-{[(cyanomethyl)(2-naphthylsulfonyl)amino]methyl}cyclohexyl)-methyl]carbamate], the pIC50 in experiment [1] was 5.49; in experiment [2], less than 4.70.

For the molecule `C=CCN(C[C@H]1CC[C@H](CNC(=O)OC(C)(C)C)CC1)S(=O)(=O)c1ccc2ccccc2c1` [Example 84, tert-Butyl [(trans-4-{[allyl(2-naphthylsulfonyl)amino]methyl}cyclohexyl)methyl]-carbamate], the figures for the pIC50 in experiment [1] and in experiment [2] were 5.34 and less than 4.70, respectively.

As to `CCCCN(C[C@H]1CC[C@H](CNC(=O)OC(C)(C)C)CC1)S(=O)(=O)c1ccc2ccccc2c1` [Example 85, tert-Butyl [(trans-4-{[butyl(2-naphthylsulfonyl)amino]methyl}cyclohexyl)methyl]-carbamate], the pIC50 in experiment [1] was 5.17; in experiment [2], less than 4.70.

Regarding `CC(C)(C)OC(=O)NC[C@H]1CC[C@H](CN(CC(F)(F)F)S(=O)(=O)c2ccc3ccccc3c2)CC1` [Example 86, tert-Butyl [(trans-4-{[(2-naphthylsulfonyl)(2,2,2-trifluoroethyl)amino]methyl}cyclo-hexyl)methyl]carbamate], the negative logarithm of the IC50 (pIC50) in experiment [1] is 5.16; in experiment [2], less than 4.70.

For `CCCN(C[C@H]1CC[C@H](CNC(=O)OC(C)(C)C)CC1)S(=O)(=O)c1ccc2ccccc2c1` [Example 87, tert-Butyl [(trans-4-{[(2-naphthylsulfonyl)(propyl)amino]methyl}cyclohexyl)methyl]-carbamate], the figures for the pIC50 in experiment [1] and in experiment [2] were 5.06 and less than 4.70, respectively.

For the molecule `CN(C[C@H]1CC[C@H](CNC(=O)OC(C)(C)C)CC1)S(=O)(=O)c1ccc2ccccc2c1` [Example 88, tert-Butyl [(trans-4-{[methyl(2-naphthylsulfonyl)amino]methyl}cyclohexyl)methyl]-carbamate], the pIC50 is 5.61 in experiment [1] and less than 4.70 in experiment [2].

Turning to `Cc1nc(-c2ccc(S(=O)(=O)N(C)C[C@H]3CC[C@H](CNC(=O)OC(C)(C)C)CC3)s2)cs1` [Example 89, tert-Butyl ({trans-4-[(methyl {[5-(2-methyl-1,3-thiazol-4-yl)-2-thienyl]sulfonyl}-amino)methyl]cyclohexyl}methyl)carbamate], the results for the pIC50 in experiment [1] and in experiment [2] were 5.52 and less than 4.70, respectively.

Consider `CCN(C[C@H]1CC[C@H](CNC(=O)OC(C)(C)C)CC1)S(=O)(=O)c1ccc(-c2csc(C)n2)s1` [Example 90, tert-Butyl ({trans-4-[(ethyl {[5-(2-methyl-1,3-thiazol-4-yl)-2-thienyl]sulfonyl}amino)-methyl]cyclohexyl}methyl)carbamate], for which the values for the pIC50 in experiment [1] and in experiment [2] were 5.70 and less than 4.70, respectively.

In the case of `CN(C[C@H]1CC[C@H](CNC(=O)OC(C)(C)C)CC1)C(=O)c1cc(-c2ccccc2)nc2ccccc12` [Example 91, tert-Butyl {[trans-4-({methyl[(2-phenylquinolin-4-yl)carbonyl]amino}methyl)cyclo-hexyl]methyl}carbamate], the pIC50 in experiment [1] is 5.64; in experiment [2] it was 5.32.

With `CC(C)(C)OC(=O)NC[C@H]1CC[C@H](CNC(=O)c2cc(-c3ccc(CN)cc3)nc3ccccc23)CC1` [Example 92, tert-Butyl [(trans-4-{[({2-[4-(aminomethyl)phenyl]quinolin-4-yl}carbonyl)amino]-methyl}cyclohexyl)methyl]carbamate acetate], the pIC50 in experiment [1] was 7.30; in experiment [2], 6.59.

As for `CC(C)(C)OC(=O)NC[C@H]1CC[C@H](CNC(=O)c2cc(-c3ccc(C(=O)O)cc3)nc3ccccc23)CC1` [Example 93, 4-(4-{[(trans-4-{[(tert-Butoxycarbonyl)amino]methyl}cyclohexyl)methyl]carbamoyl}-quinolin-2-yl)benzoic acid], the pIC50 in experiment [1] was 6.77; in experiment [2], 5.73.

Regarding `CC(C)(C)OC(=O)NC[C@H]1CC[C@H](CNC(=O)c2cc(-c3cc[n+]([O-])cc3)nc3ccccc23)CC1` [Example 94, tert-Butyl ({trans-4-[({[2-(1-oxidopyridin-4-yl)quinolin-4-yl]carbonyl}amino)methyl]-cyclohexyl}methyl)carbamate], the figures for the pIC50 in experiment [1] and in experiment [2] were 6.03 and 5.26, respectively.

As to `CC(C)(C)OC(=O)NC[C@H]1CC[C@H](CNS(=O)(=O)c2cc(-c3ccccc3)nc3ccccc23)CC1` [Example 95, tert-Butyl {[trans-4-({[(2-phenylquinolin-4-yl)sulfonyl]amino}methyl)cyclohexyl]-methyl}carbamate], the pIC50 in experiment [1] is 6.01; in experiment [2], 5.67.

As to `CC(C)(C)OC(=O)NC[C@H]1CC[C@H](CNC(=O)c2cccc3ccccc23)CC1` [Example 96, tert-Butyl ({trans-4-[(1-naphthoylamino)methyl]cyclohexyl}methyl)carbamate], the pIC50 is 5.44 in experiment [1] and less than 4.70 in experiment [2].

Regarding `CC(C)(C)NC(=O)NC[C@H]1CC[C@H](CNC(=O)c2cc(-c3ccncc3)nc3ccccc23)CC1` [Example 97, N-[(trans-4-{[(tert-Butylcarbamoyl)amino]methyl}cyclohexyl)methyl]-2-pyridin-4-ylquinoline-4-carboxamide], the values for the pIC50 in experiment [1] and in experiment [2] were 5.21 and 4.74, respectively.

As to `CC(C)(C)OC(=O)NC[C@H]1CC[C@H](CNC(=O)c2cc(-c3cccc(CNS(C)(=O)=O)c3)nc3ccccc23)CC1` [Example 98, tert-Butyl ({trans-4-[({[2-(3-{[(methylsulfonyl)amino]methyl}phenyl)quinolin-4-yl]carbonyl}amino)methyl]cyclohexyl}methyl)carbamate], the pIC50 in experiment [1] was 7.15; in experiment [2], 5.86.

For the molecule `CC(C)(C)OC(=O)NC[C@H]1CC[C@H](CNC(=O)c2cc(-c3cccc(CNC(N)=O)c3)nc3ccccc23)CC1` [Example 99, tert-Butyl {[trans-4-({[(2-{3-[(carbamoylamino)methyl]phenyl}quinolin-4-yl)-carbonyl]amino}methyl)cyclohexyl]methyl}carbamate], the pIC50 is 7.00 in experiment [1] and 6.11 in experiment [2].

With `CC(=O)NCc1cccc(-c2cc(C(=O)NC[C@H]3CC[C@H](CNC(=O)OC(C)(C)C)CC3)c3ccccc3n2)c1` [Example 100, tert-Butyl [(trans-4-{[({2-[3-(acetamidomethyl)phenyl]quinolin-4-yl}carbonyl)amino]-methyl}cyclohexyl)methyl]carbamate], the values for the pIC50 in experiment [1] and in experiment [2] were 6.96 and 6.23, respectively.
